According to PubChem BioAssay AID2060337 (Molecular Pharmacology Branch, DTP, NCI, 2025):

Test system: 832693-133-R-J1-PDC multi-cell spheroids, viability
Test: Anticancer human tumor 832693-133-R-J1-PDC patient-derived head and neck squamous carcinoma cell line growth inhibition [IpAb]
Settings: for IC50: curve of first compound; for viability, T/C: stronger effect = lower value
Procedure, shortened: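 Spheroids of 60% malignant cells, 25% HUVEC and 15% MSC were exposed to targeted agents combined with ipatasertib or abemaciclib. Doses started at or near clinical Cmax (10 microM when unknown) and fell in half-log steps.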

[1] = second compound 0.1 µM, first compound 0.0316 µM
[2] = second compound 0.1 µM, first compound 0.1 µM
[3] = second compound 0.1 µM, first compound 0.316 µM
[4] = second compound 0.1 µM, first compound 1 µM
[5] = second compound 0.1 µM, first compound 3.16 µM
[6] = second compound 0.1 µM, first compound 10 µM
[7] = second compound 0.316 µM, first compound 0.0316 µM
[8] = second compound 0.316 µM, first compound 0.1 µM
[9] = second compound 0.316 µM, first compound 0.316 µM
[10] = second compound 0.316 µM, first compound 1 µM
[11] = second compound 0.316 µM, first compound 3.16 µM
[12] = second compound 0.316 µM, first compound 10 µM
[13] = second compound 1 µM, first compound 0.0316 µM
[14] = second compound 1 µM, first compound 0.1 µM
[15] = second compound 1 µM, first compound 0.316 µM
[16] = second compound 1 µM, first compound 1 µM
[17] = second compound 1 µM, first compound 3.16 µM
[18] = second compound 1 µM, first compound 10 µM
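Further: spheroids exposed to the drugs for one week before the viability readout.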
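Wherever viability, T/C is given: 100% = DMSO vehicle control wells.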

| SMILES | IC50 (second compound 0.1 µM) | IC50 (second compound 0.316 µM) | IC50 (second compound 1 µM) | viability, T/C [1] | viability, T/C [2] | viability, T/C [3] | viability, T/C [4] | viability, T/C [5] | viability, T/C [6] | viability, T/C [7] | viability, T/C [8] | viability, T/C [9] | viability, T/C [10] | viability, T/C [11] | viability, T/C [12] | viability, T/C [13] | viability, T/C [14] | viability, T/C [15] | viability, T/C [16] | viability, T/C [17] | further results |
| --- | --- | --- | --- | --- | --- | --- | --- | --- | --- | --- | --- | --- | --- | --- | --- | --- | --- | --- | --- | --- | --- |
| Cn1nccc1Nc1nccc(-c2ccn(C(CO)c3ccc(Cl)c(F)c3)c(=O)c2)n1 (stereo not given) + CC(C)NCC(C(=O)N1CCN(c2ncnc3c2C(C)CC3O)CC1)c1ccc(Cl)cc1 | 383 nM | 87.4 nM | 37.1 nM | 90.9% | 64.3% | 55.9% | 41.2% | 23.1% | 21.5% | 60.1% | 50% | 35.2% | 27.8% | 19.7% | 11.2% | 50.7% | 43.2% | 26.6% | 20.9% | 14% | IC50 (second compound 3.16 µM): 46.8 nM; IC50 (second compound 10 µM): 326 nM; viability, T/C [18]: 7.18%; viability, T/C (second compound 3.16 µM, first compound 0.0316 µM): 51.5%; viability, T/C (second compound 3.16 µM, first compound 0.1 µM): 47.3%; viability, T/C (second compound 3.16 µM, first compound 0.316 µM): 30.6%; viability, T/C (second compound 3.16 µM, first compound 1 µM): 19.9%; viability, T/C (second compound 3.16 µM, first compound 3.16 µM): 12.6%; viability, T/C (second compound 3.16 µM, first compound 10 µM): 8.87%; viability, T/C (second compound 10 µM, first compound 0.0316 µM): 56.3%; viability, T/C (second compound 10 µM, first compound 0.1 µM): 59.6%; viability, T/C (second compound 10 µM, first compound 0.316 µM): 50.9%; viability, T/C (second compound 10 µM, first compound 1 µM): 28.7%; viability, T/C (second compound 10 µM, first compound 3.16 µM): 17.9%; viability, T/C (second compound 10 µM, first compound 10 µM): 10.5% |
| C=CCn1c(=O)c2cnc(Nc3ccc(N4CCN(C)CC4)cc3)nc2n1-c1cccc(C(C)(C)O)n1 + CCN1CCN(Cc2ccc(Nc3ncc(F)c(-c4cc(F)c5nc(C)n(C(C)C)c5c4)n3)nc2)CC1 | 138 nM | 134 nM | 2620 nM | 65.9% | 51.8% | 41.6% | 33.3% | 30.9% | 19.1% | 53.4% | 52.9% | 47.9% | 37.4% | 35.2% | 25% | 61.9% | 65.9% | 56.7% | 53.6% | 51.6% | IC50 (second compound 0.01 µM): 233 nM; IC50 (second compound 0.0316 µM): 246 nM; viability, T/C (second compound 0.01 µM, first compound 0.0316 µM): 93.9%; viability, T/C (second compound 0.01 µM, first compound 0.1 µM): 66.6%; viability, T/C (second compound 0.01 µM, first compound 0.316 µM): 42.4%; viability, T/C (second compound 0.01 µM, first compound 1 µM): 28.9%; viability, T/C (second compound 0.01 µM, first compound 3.16 µM): 27.5%; viability, T/C (second compound 0.01 µM, first compound 10 µM): 13.9%; viability, T/C (second compound 0.0316 µM, first compound 0.0316 µM): 74.7%; viability, T/C (second compound 0.0316 µM, first compound 0.1 µM): 68%; viability, T/C (second compound 0.0316 µM, first compound 0.316 µM): 40.4%; viability, T/C (second compound 0.0316 µM, first compound 1 µM): 33.2%; viability, T/C (second compound 0.0316 µM, first compound 3.16 µM): 29.3%; viability, T/C (second compound 0.0316 µM, first compound 10 µM): 14.9%; viability, T/C [18]: 23.8% |
